Assays:
Assay type in all cases: in vivo, human
[1] = Treatment-emergent adverse events (TEAEs), TRESR
Procedure: Tolerability and safety of camonsertib was evaluated by assessment of AEs, TEAEs, serious adverse events (SAEs), DLTs, concomitant medications and procedures, physical examinations, vital sign measurements, clinical safety laboratory evaluations (hematology, chemistry and urinalysis), ECOG performance status scores and electrocardiograms.
All safety and efficacy endpoints were summarized with descriptive statistics. Safety data were summarized using the safety population, which consisted of all patients who received at least one dose of RP-3500. The DLT rate was based on the DLT-evaluable population, which included those patients in dose-escalation cohorts (M1a and M1b only) receiving ≥80% of planned doses of camonsertib, who completed all required safety evaluations and were observed through the end of cycle 1 or patients who experienced a DLT. Due to the different number of dose levels expected and the exploratory nature of the phase 1 study, anti-tumor activity parameters were primarily based on patients who received ≥1 dose of RP-3500 and had ≥1 post-baseline tumor assessment by RECIST 1.1 and/or GCIG CA-125 or PCWG3 PSA criteria, with an initial dose level of >100 mg d^−1 (dose level predicted to achieve efficacious exposure), as defined in the statistical analysis plan. Additional subgroups based on tumor types or genotypes of interest were based on this efficacy analysis set. […] Patients were, therefore, enrolled in the study and endpoints assessed regardless of sex, gender and race. No formal statistical tests were performed in this study. However, nominal P values (two-sided) were provided for the hypothesis-generating purpose of selected exploratory endpoints, without adjusting for multiplicity. A log-rank test was used in between-group comparisons for the time-to-event endpoints (PFS and DOT), and Fisher’s exact test was used in between-group comparisons for the binary endpoints (CBR, MR, etc.).

[2] = tested on: p-KAP1 Ser821; experiment: PD biomarker IHC in paired pre-/on-treatment tumor biopsies; conditions: 33 paired biopsies, doses >100 mg; P < 0.001, paired Wilcoxon test
Procedure: (§1) Tumor biopsies were collected from patients at baseline and on cycle 2, day 10 between 8 h and 24 h after dosing. […] Thus, p-CHK1 was not assessed owing to limited feasibility. Unstained slides sectioned at 4 μm were labeled for gH2AX Ser139 (clone 20E3, 9718, Cell Signaling Technology, 1:1,000 dilution) and pKAP1 S824 (clone BL-246-7B5, ab243870, Abcam, 1:600 dilution) on a BOND RX autostainer (Leica Biosystems) with enzyme treatment (1:1,000) and BOND Polymer Refine Detection (Leica Biosystems) according to the manufacturer’s protocol. After staining, sections were dehydrated and film-coverslipped using a TissueTek Prisma and Coverslipper (Sakura Fintech). Retrospective ATM IHC was performed by a sponsor-approved central laboratory (anti-ATM clone Y170, ab32420, Abcam, 1:250 dilution). All slides were interpreted by a board-certified pathologist. ATM loss was defined as ≤5% of positive tumor cells.

[3] = tested on: γ-H2AX; experiment: as above; conditions: 33 paired biopsies, doses >100 mg; P = 0.003, paired Wilcoxon test
Procedure: as §1

[4] = 3/4 schedule (n = 95), all grades
[5] = 3/4 schedule (n = 95), grade 3+
[6] = 5/2 schedule (n = 25), all grades
[7] = 5/2 schedule (n = 25), grade 3+

C[C@@H]1COCCN1c1cc([C@]2(O)C[C@H]3CC[C@@H](C2)O3)c2cnn(-c3cc[nH]n3)c2n1 [camonsertib]
Any TEAE [1, 4]: 92 (96.8) n (%) | TEAE: Abdominal pain [1, 4]: 15 (15.8) n (%) | TEAE: Anemia [1, 4]: 63 (66.3) n (%) | TEAE: Blood creatinine increased [1, 4]: 8 (8.4) n (%) | TEAE: Constipation [1, 4]: 13 (13.7) n (%) | TEAE: Decreased appetite [1, 4]: 21 (22.1) n (%) | TEAE: Diarrhea [1, 4]: 20 (21.1) n (%) | TEAE: Dizziness [1, 4]: 11 (11.6) n (%) | TEAE: Dyspnea [1, 4]: 18 (18.9) n (%) | TEAE: Fatigue [1, 4]: 34 (35.8) n (%) | TEAE: Nausea [1, 4]: 31 (32.6) n (%) | TEAE: Neutrophil count decreased/neutropenia [1, 4]: 27 (28.4) n (%) | TEAE: Platelet count decreased/ thrombocytopenia [1, 4]: 25 (26.3) n (%) | TEAE: Vomiting [1, 4]: 16 (16.8) n (%) | TEAE: White blood cell count decreased [1, 4]: 11 (11.6) n (%) | Any TEAE [1, 5]: 51 (53.7) n (%) | TEAE: Abdominal pain [1, 5]: 0 n (%) | TEAE: Anemia [1, 5]: 28 (29.5) n (%) | TEAE: Blood creatinine increased [1, 5]: 0 n (%) | TEAE: Constipation [1, 5]: 0 n (%) | TEAE: Decreased appetite [1, 5]: 0 n (%) | TEAE: Diarrhea [1, 5]: 0 n (%) | TEAE: Dizziness [1, 5]: 0 n (%) | TEAE: Dyspnea [1, 5]: 2 (2.1) n (%) | TEAE: Fatigue [1, 5]: 2 (2.1) n (%) | TEAE: Nausea [1, 5]: 3 (3.2) n (%) | TEAE: Neutrophil count decreased/neutropenia [1, 5]: 13 (13.7) n (%) | TEAE: Platelet count decreased/ thrombocytopenia [1, 5]: 8 (8.4) n (%) | TEAE: Vomiting [1, 5]: 3 (3.2) n (%) | TEAE: White blood cell count decreased [1, 5]: 4 (4.2) n (%) | Any TEAE [1, 6]: 25 (100.0) n (%) | TEAE: Abdominal pain [1, 6]: 3 (12.0) n (%) | TEAE: Anemia [1, 6]: 21 (84.0) n (%) | TEAE: Blood creatinine increased [1, 6]: 4 (16.0) n (%) | TEAE: Constipation [1, 6]: 5 (20.0) n (%) | TEAE: Decreased appetite [1, 6]: 6 (24.0) n (%) | TEAE: Diarrhea [1, 6]: 3 (12.0) n (%) | TEAE: Dizziness [1, 6]: 2 (8.0) n (%) | TEAE: Dyspnea [1, 6]: 8 (32.0) n (%) | TEAE: Fatigue [1, 6]: 10 (40.0) n (%) | TEAE: Nausea [1, 6]: 8 (32.0) n (%) | TEAE: Neutrophil count decreased/neutropenia [1, 6]: 6 (24.0) n (%) | TEAE: Platelet count decreased/ thrombocytopenia [1, 6]: 8 (32.0) n (%) | TEAE: Vomiting [1, 6]: 4 (16.0) n (%) | TEAE: White blood cell count decreased [1, 6]: 3 (12.0) n (%) | Any TEAE [1, 7]: 19 (76.0) n (%) | TEAE: Abdominal pain [1, 7]: 0 n (%) | TEAE: Anemia [1, 7]: 14 (56.0) n (%) | TEAE: Blood creatinine increased [1, 7]: 0 n (%) | TEAE: Constipation [1, 7]: 0 n (%) | TEAE: Decreased appetite [1, 7]: 0 n (%) | TEAE: Diarrhea [1, 7]: 0 n (%) | TEAE: Dizziness [1, 7]: 0 n (%) | TEAE: Dyspnea [1, 7]: 0 n (%) | TEAE: Fatigue [1, 7]: 1 (4.0) n (%) | TEAE: Nausea [1, 7]: 0 n (%) | TEAE: Neutrophil count decreased/neutropenia [1, 7]: 4 (16.0) n (%) | TEAE: Platelet count decreased/ thrombocytopenia [1, 7]: 3 (12.0) n (%) | TEAE: Vomiting [1, 7]: 0 n (%) | TEAE: White blood cell count decreased [1, 7]: 0 n (%) | Change in p-KAP1, on-treatment vs pre-treatment biopsy [2]: statistically significant increases | Change in γ-H2AX, on-treatment vs pre-treatment biopsy [3]: statistically significant increases

From publication PMC10287555, “Camonsertib in DNA damage response-deficient advanced solid tumors: phase 1 trial results” (Nature Medicine, 2023)
